{
  "source": "patent US20220211752A1",
  "about": "“METHIONINE AND CYSTEINE DEPRIVATION DIET AND FORMULATIONS TO INCREASE EFFECTIVENESS OF CANCER THERAPY” (THE TRUSTEES OF COLUMBIA UNIVERSITY IN THE CITY OF NEW YORK, priority 2020, published 2022)",
  "key": {"MG4 cells": {"test_system": "MG4 cells", "assay": "Bodipy-C11 flow cytometry, radiation plus CMD", "assay_type": "cell-based, mouse", "conditions": "Ferrostatin-1", "excerpt": "(§1) Adherent cells were lifted using TrypLE (ThermoFisher™ Scientific).\nRadiation is a known ferroptosis inducer. […] Treatment of both mouse glioma cells (MG1 and MG4) and human GBM cells (TS543) is shown."}, "mouse glioma cell lines": {"test_system": "mouse glioma cell lines", "assay": "Dose response cell viability, IKE with or without CMD", "assay_type": "cell-based", "conditions": "10 uM Ferrostatin-1", "excerpt": "(§2) A basis for the invention that depriving glioma cells of sulfur containing amino acids (cystine and methionine) will result in lower levels of glutathione (which normally protects cells from lipid peroxidation) and therefore would sensitize the glioma cells to ferroptosis inducing drugs. […] Both these effects were rescued by ferrostatin."}, "MG1 cells [1]": {"test_system": "MG1 cells", "assay": "Bodipy-C11 flow cytometry, IKE with or without CMD", "assay_type": "cell-based, mouse", "conditions": "10 uM Ferrostatin-1", "excerpt": "as §1, §2"}, "MG1 cells [2]": {"test_system": "MG1 cells", "assay": "Live cell confocal microscopy of Bodipy-C11 lipid peroxidation", "assay_type": "cell-based, mouse", "method": "1.3×10^5 MG1 cells were plated on poly-L-lysine coated 35 mm glass-bottom dishes (MatTek™ life sciences) for 24 hours. Cells were incubated for 30 minutes in basal media (DMEM (Gibco™ 11965092) with 0.5% FBS (Gibco™ 16000044), antibiotic-antimycotic (Thermo Scientific™ 15240096), N2 supplement (Thermo Fisher Scientific™, 17502-048), and 10 ng/ml each of recombinant human PDGF-AA (Peprotech, 100-13A) and FGFb (Peprotech™. 10018B50UG)) media containing 5 μM BODIPY-C11. Media were replaced with fresh basal media and cells were imaged on a Nikon™ A1RMP confocal microscope at 37° C. in a humidified chamber with 5% C02. Time-lapse images were acquired using a 40×/1.3 NA oil immersion objective and focus was maintained using the Perfect Focus™ System. Excitation was achieved using 488 nm and 561 nm laser illumination; emission of the oxidized and reduced forms of BODIPY-C11 was captured using a 525/50 and a 595/50 filter, respectively. At time 0, RSL3 (500 nM) or RSL3 (500 nM)+Ferrostatin (2 μM) were added and images were acquired every 30 seconds for a total of 30 minutes. Images were exported to ImageJ™ for analysis."}, "[3]": {"test_system": "human diffuse astrocytoma slice culture", "assay": "H2DCFDA flow cytometry of human glioma slice cultures, IKE plus radiation", "assay_type": "cell-based", "conditions": "10 μM IKE, 0 or 2 Gy radiation for 24 hours", "excerpt": "To further understand the translational relevance of these findings to human glioma samples, an acute organotypic slice culture model was used. […] The tissue was placed on a Millicell™ cell culture insert in treatment media. This media comprised of DMEM+ Hams-F12 without cysteine or methionine (MyBioSource, MBS652871) or DMEM+ Hams-F12 with cysteine and methione to create the to varied conditions that would undergo radiation or IKE treatment.\nHorizontal bars indicate H2DCFDA-positive cell populations."}, "MG3 cells": {"test_system": "MG3 cells", "assay": "384-well dose-response to GPX4 inhibitors with or without CMD", "assay_type": "cell-based, mouse", "conditions": "dose response assays, with or without 2 uM Ferrostatin-1", "method": "(§3) Cell viability was assessed using the Cell-Titer^Glo™ luminescence assay. Murine glioma cells were plated in triplicate at a density of 6,000 cells per well in a 96-well plate (ThermoFisher Scientific™). Twenty-four hours after plating, media was removed and treatment media was added. Viability was assessed 24 hours after treatment. Human glioma cells were plated at a density of 2,000 cells per well. Cells were plated in normal media or cysteine/methionine deprived media. Twenty-four hours after plating, media was changed to begin drug treatment. Forty-eight hours after plating, luminescence was measured.\n(§4) Averages across 3 independent experiments are reported. For experiments conducted in 384-well plates, mouse glioma cells were plated at a density of 1,600 cells per well and human glioma cells were plated at a density of 1,000 cells per well. The assays as described above were quantified using Cell-Titer Glo™ (Promega™) ATP based bioluminescence. To determine cell viability, a 50% Cell Titer Glo™ and 50% cell culture medium was added to each well and incubated at room temperature for 10 minutes. Luminescence was assessed on a Promega™ GloMax™ Microplate Reader."}, "MG1 cells [4]": {"test_system": "MG1 cells", "assay": "Dose-response of MG1 cells to RSL3 plus cell death inhibitors", "assay_type": "cell-based, mouse", "conditions": "5 uM ZVAD-FMK; 2 uM Nec-1s", "method": "as §3, §4"}, "glioma cell lines": {"test_system": "glioma cell lines", "assay": "Cell viability dose-response to RSL3 (Cell-Titer Glo)", "assay_type": "cell-based, mouse, human", "method": "as §3, §4\nTo test this, media was adapted for cell culture based on the previous ferroptosis permissive glioma culture methods. […]"}, "[5]": {"test_system": "human primary glioblastoma", "assay": "H2DCFDA flow cytometry of ex vivo organotypic slice cultures, RSL3 with or without CMD", "assay_type": "cell-based", "conditions": "100 nM RSL3 plus CMD", "method": "Mice were sacrificed by cervical dislocation.\nSlice cultures were dissociated in papain (9.5 mL DPBS, 500 μL papain, 1.67 μL 6 M NaOH, 2 mg L-cysteine, 100 μL DNAse) and incubated in a warm bath shaker at 37° C. for 30 minutes. After centrifugation at 400×g for 5 minutes, the papain was aspirated and slices were resuspended in ice cold PBS and triturated with glass tip Pasteur pipettes. This process was repeated one time and then the cell suspension was resuspended in a 30% sucrose solution and spun at 1000×g for 5 minutes. The cell suspension was resuspended in PBS and stained with Calcein Blue (final concentration 5 μM) and H2DCFDA (final concentration 10 μM), incubated in a water bath at 37° C. for 10 minutes. Suspensions were spun down at 500×g for 5 minutes and resuspended in PBS and taken for flow cytometric analysis on a LSRIII Fortessa™ machine. Cell and Slice culture suspensions were filtered in polystyrene flow tubes (Fisher Scientific™). Data were collected on an LSRIII Fortessa™ flow analyzer and analyzed using FlowJo™ v10.\nThe slices were treated with RSL3 and assayed via flow cytometry for levels of reactive oxygen species (ROS) using H2DCFDA."}},
  "note": "Peptide text beside a SMILES is read from it. * marks the point of attachment. Cbz = O=C(OCc1ccccc1)*; CH2F = FC*",
  "data": [
    {"smiles": "CCOC(=O)c1ccc(NC2CCCCC2)c(N)c1", "note": "[Ferrostatin-1]", "values": [
      {"measurement": "rescue of lipid peroxidation from radiation plus CMD", "setting": "MG4 cells", "result": "complete rescue"},
      {"measurement": "rescue of CMD enhanced IKE induced cell death", "setting": "mouse glioma cell lines", "result": "rescued"},
      {"measurement": "rescue of CMD plus IKE lipid peroxidation", "setting": "MG1 cells [1]", "result": "rescued"},
      {"measurement": "effect on RSL3 induced lipid peroxidation", "setting": "MG1 cells [2]; 500 nM RSL3 and 2 uM Ferrostatin-1", "result": "prevented this lipid peroxidation"}
    ]},
    {"smiles": "CC(C)Oc1ccc(C(=O)Cn2ccnc2)cc1-n1c(CN2CCN(C(=O)COc3ccc(Cl)cc3)CC2)nc2ccccc2c1=O", "note": "[IKE, imidazole ketone erastin]", "values": [
      {"measurement": "H2DCFDA-positive cells, interaction with radiation", "setting": "[3]", "result": "synergy of radiation with IKE treatment"}
    ]},
    {"smiles": "Cc1onc(C(=O)N2CCN(C(c3ccc(Cl)cc3)c3ccc(Cl)cc3)CC2)c1[N+](=O)[O-]", "note": "[ML-210]", "values": [
      {"measurement": "ferroptosis in combination with CMD", "setting": "MG3 cells", "result": "synergistic enhancement of ferroptosis with CMD"}
    ]},
    {"smiles": "CN1C(=O)NC(Cc2c[nH]c3c(Cl)cccc23)C1=O", "note": "(stereo not shown) [Nec-1s]", "values": [
      {"measurement": "rescue of RSL3 mediated cell death", "setting": "MG1 cells [4]", "result": "not rescuable"}
    ]},
    {"smiles": "COC(=O)c1ccc([C@@H]2c3[nH]c4ccccc4c3C[C@@H](C(=O)OC)N2C(=O)CCl)cc1", "note": "[RSL3]", "values": [
      {"measurement": "ferroptosis in combination with CMD", "setting": "MG3 cells", "result": "synergistic enhancement of ferroptosis with CMD"},
      {"measurement": "cell viability with CMD plus RSL3", "setting": "glioma cell lines; dose response curves, dual treatment (FIG. 30)", "result": "stark difference in cell viability with dual treatment"},
      {"measurement": "sensitivity to ferroptosis by RSL3", "setting": "glioma cell lines; five cell lines assayed, 384-well dose-response", "result": "baseline sensitivity to ferroptosis"},
      {"measurement": "reactive oxygen species (ROS) levels, H2DCFDA", "setting": "[5]", "result": "increased ROS to levels equivalent to a high dose of RSL3 (500 nM)"},
      {"measurement": "lipid peroxidation (Bodipy-C11 green fluorescence shift)", "setting": "MG1 cells [2]; 500 nM RSL3", "result": "induction of lipid peroxidation"}
    ]},
    {"smiles": "COC(=O)C[C@H](NC(=O)[C@H](C)NC(=O)[C@@H](NC(=O)OCc1ccccc1)C(C)C)C(=O)CF", "note": "[ZVAD-FMK] (Cbz-Val-Ala-Asp(OMe)-CH2F)", "values": [
      {"measurement": "rescue of RSL3 mediated cell death", "setting": "MG1 cells [4]", "result": "not rescuable"}
    ]}
  ]
}
